Test results taken from the CheMixHub viscosity set.
Where “and” joins values, the source holds several entries; their conditions need not be identical. Equal entries are not always repeated.

Assay: xn = mol fraction of the nth substance listed

CC(C)O + O
Conditions | viscosity
293.15 K, 100 kPa, x1 = 0.2 | 3.802 mPa·s and 3.645 mPa·s
293.15 K, 100 kPa, x1 = 0.3 | 3.735 mPa·s
293.15 K, 101 kPa, x1 = 0.01 | 1.17 mPa·s
293.15 K, 101 kPa, x1 = 0.02 | 1.369 mPa·s
293.15 K, 101 kPa, x1 = 0.032 | 1.67 mPa·s
293.15 K, 101 kPa, x1 = 0.05 | 2.062 mPa·s
293.15 K, 101 kPa, x1 = 0.07069 | 2.544 mPa·s
293.15 K, 101 kPa, x1 = 0.1 | 3.054 mPa·s
293.15 K, 101 kPa, x1 = 0.11 | 3.26 mPa·s
293.15 K, 101 kPa, x1 = 0.2 | 3.741 mPa·s
293.15 K, 101 kPa, x1 = 0.23 | 3.875 mPa·s
293.15 K, 101 kPa, x1 = 0.41 | 3.493 mPa·s
298.15 K, 101 kPa, x1 = 0.01 | 1.029 mPa·s
298.15 K, 101 kPa, x1 = 0.02 | 1.188 mPa·s
298.15 K, 101 kPa, x1 = 0.032 | 1.416 mPa·s
298.15 K, 101 kPa, x1 = 0.07069 | 2.089 mPa·s
298.15 K, 101 kPa, x1 = 0.1 | 2.472 mPa·s
298.15 K, 101 kPa, x1 = 0.11 | 2.601 mPa·s
298.15 K, 101 kPa, x1 = 0.23 | 3.141 mPa·s
298.15 K, 101 kPa, x1 = 0.41 | 2.912 mPa·s
298.15 K, 101 kPa, x2 = 0.26 | 2.142 mPa·s
298.15 K, 101 kPa, x2 = 0.4678 | 2.527 mPa·s
298.15 K, 101 kPa, x2 = 0.6079 | 2.87 mPa·s
298.15 K, 101 kPa, x2 = 0.685 | 3.03 mPa·s
298.15 K, 101 kPa, x2 = 0.7249 | 3.054 mPa·s
298.15 K, 101 kPa, x2 = 0.805 | 2.978 mPa·s
298.15 K, 101 kPa, x2 = 0.89 | 2.431 mPa·s
298.15 K, 101 kPa, x2 = 0.9549 | 1.655 mPa·s
298.15 K, 101.33 kPa, x1 = 0.015 | 1.112 mPa·s
298.15 K, 101.33 kPa, x1 = 0.05 | 1.747 mPa·s
298.15 K, 101.33 kPa, x1 = 0.075 | 2.181 mPa·s
298.15 K, 101.33 kPa, x1 = 0.15 | 2.883 mPa·s
298.15 K, 101.33 kPa, x1 = 0.2 | 3.008 mPa·s
298.15 K, 101.33 kPa, x1 = 0.25 | 3.057 mPa·s
298.15 K, 101.33 kPa, x1 = 0.3 | 3.026 mPa·s
298.15 K, 101.33 kPa, x1 = 0.4 | 2.855 mPa·s
298.15 K, 101.33 kPa, x1 = 0.5 | 2.631 mPa·s
298.15 K, 101.33 kPa, x1 = 0.6 | 2.411 mPa·s
298.15 K, 101.33 kPa, x1 = 0.7 | 2.23 mPa·s
298.15 K, 101.33 kPa, x1 = 0.8 | 2.098 mPa·s
298.15 K, 101.33 kPa, x1 = 0.9 | 2.03 mPa·s
298.15 K, 101.33 kPa, x1 = 0.925 | 2.026 mPa·s
298.15 K, 101.33 kPa, x1 = 0.95 | 2.031 mPa·s
303.15 K, 100 kPa, x2 = 0.1 | 1.77 mPa·s
303.15 K, 100 kPa, x2 = 0.2 | 1.83 mPa·s
303.15 K, 100 kPa, x2 = 0.3 | 1.95 mPa·s
303.15 K, 100 kPa, x2 = 0.4 | 2.1 mPa·s
303.15 K, 100 kPa, x2 = 0.5 | 2.25 mPa·s
303.15 K, 100 kPa, x2 = 0.6 | 2.42 mPa·s
303.15 K, 100 kPa, x2 = 0.7 | 2.54 mPa·s
303.15 K, 100 kPa, x2 = 0.8 | 2.47 mPa·s
303.15 K, 100 kPa, x2 = 0.9 | 1.95 mPa·s
303.15 K, 101 kPa, x1 = 0.01 | 0.912 mPa·s
303.15 K, 101 kPa, x1 = 0.02 | 1.04 mPa·s
303.15 K, 101 kPa, x1 = 0.05 | 1.467 mPa·s
303.15 K, 101 kPa, x1 = 0.07069 | 1.735 mPa·s
303.15 K, 101 kPa, x1 = 0.1 | 2.041 mPa·s
303.15 K, 101 kPa, x1 = 0.2 | 2.504 mPa·s
303.15 K, 101 kPa, x1 = 0.23 | 2.573 mPa·s
303.15 K, 101 kPa, x1 = 0.41 | 2.434 mPa·s
303.15 K, 101 kPa, x2 = 0.1049 | 1.789 mPa·s
303.15 K, 101 kPa, x2 = 0.26 | 1.863 mPa·s
303.15 K, 101 kPa, x2 = 0.4678 | 2.158 mPa·s
303.15 K, 101 kPa, x2 = 0.6079 | 2.439 mPa·s
303.15 K, 101 kPa, x2 = 0.685 | 2.55 mPa·s
303.15 K, 101 kPa, x2 = 0.7249 | 2.557 mPa·s
303.15 K, 101 kPa, x2 = 0.805 | 2.451 mPa·s
303.15 K, 101 kPa, x2 = 0.89 | 2.007 mPa·s
303.15 K, 101 kPa, x2 = 0.9549 | 1.419 mPa·s
308.15 K, 101 kPa, x1 = 0.01 | 0.815 mPa·s
308.15 K, 101 kPa, x1 = 0.02 | 0.923 mPa·s
308.15 K, 101 kPa, x1 = 0.032 | 1.056 mPa·s
308.15 K, 101 kPa, x1 = 0.05 | 1.263 mPa·s
308.15 K, 101 kPa, x1 = 0.07069 | 1.48 mPa·s
308.15 K, 101 kPa, x1 = 0.1 | 1.717 mPa·s
308.15 K, 101 kPa, x1 = 0.11 | 1.749 mPa·s
308.15 K, 101 kPa, x1 = 0.2 | 2.109 mPa·s
308.15 K, 101 kPa, x1 = 0.23 | 2.142 mPa·s
308.15 K, 101 kPa, x1 = 0.41 | 2.044 mPa·s
308.15 K, 101 kPa, x2 = 0.1049 | 1.56 mPa·s
